Assay results from US4792545A, “Boholmycin antibiotic” (Bristol-Myers Company, priority 1986, dated 1988).
Values after ≈ are worked out from the molar mass of the structure shown. Read-outs that look alike come from different tables or passages of the source.

What was measured:
E. coli D64 = assay: stimulating growth of streptomycin-dependent E. coli D64 (paper disc); type: cell-based; settings: 37° C., 45 hours; for Growth zone vs E. coli D64, hazy growth zone: value in parentheses
Text: The results are shown in Table 4 wherein the term "boholmycin" is used for short in referring to boholmycin dihydrochloride tetrahydrate.

B. subtilis PCI-219 = assay: inhibiting growth of B. subtilis PCI-219 (paper disc); type: cell-based; settings: for Inhibition zone vs B. subtilis PCI-219: 28° C., 18 hours
Method: Boholmycin dihydrochloride tetrahydrate was tested in comparison with streptomycin, glebomycin, myomycin B and kanamycin in respect to stimulating growth of E. coli D64 and in respect to inhibiting growth of B. subtilis PCI-219. The results are shown in Table 4 wherein the term "boholmycin" is used for short in referring to boholmycin dihydrochloride tetrahydrate.
*^1 8 mm paper disc containing 35 μl of test solution
*^3 Incubation at 28° C. for 18 hours

E. coli A20664 = assay: MIC by serial agar dilution; type: cell-based; settings: Escherichia coli; E. coli A20664, kanamycin resistant strain; medium A: Nutrient agar; read-out: MIC
K. pneumoniae A9678 = assay: MIC by serial agar dilution; type: cell-based; settings: Klebsiella pneumoniae, medium A: Nutrient agar, read-out: MIC
Mycobacterium 607 D46 = assay: MIC by serial agar dilution; type: cell-based; settings: Mycobacterium 607 D46, kanamycin resistant strain; medium B: No. 1001 medium; read-out: MIC
S. aureus Smith [1] = assay: MIC by serial agar dilution; type: cell-based; settings: Staphylococcus aureus
Mycobacterium ranae = assay: MIC by serial agar dilution; type: cell-based; settings: Mycobacterium
B. anthracis IID-115 = assay: microbe, parasite or virus in culture; type: cell-based; settings: Bacillus anthracis, IID115
S. aureus 209P = assay: MIC by serial agar dilution; type: cell-based; settings: Staphylococcus aureus, 209P
P. mirabilis A9554 = assay: MIC by serial agar dilution; type: cell-based; settings: Proteus mirabilis, medium A: Nutrient agar, read-out: MIC
E. coli JR35/c600 = assay: MIC by serial agar dilution; type: cell-based; settings: Escherichia coli, JR35/C600
P. vulgaris A9436 = assay: MIC by serial agar dilution; type: cell-based; settings: Proteus vulgaris, medium A: Nutrient agar, read-out: MIC
S. aureus Smith [2] = assay: in vivo efficacy in mice against experimental infection; settings: Staphylococcus aureus, im, 120 h, read-out: PD50
S. marcescens A22302 = assay: MIC by serial agar dilution; type: cell-based; settings: Serratia marcescens, A22302
K. pneumoniae D-11 [3] = assay: MIC by serial agar dilution; type: cell-based; settings: Klebsiella pneumoniae, D11, medium A: Nutrient agar, read-out: MIC
P. aeruginosa A9843A = assay: microbe, parasite or virus in culture; type: cell-based; settings: Pseudomonas aeruginosa, A9843A
E. coli K-12 = assay: MIC by serial agar dilution; type: cell-based; settings: Escherichia coli, K12, medium A: Nutrient agar, read-out: MIC
Mycobacterium phlei = assay: MIC by serial agar dilution; type: cell-based; settings: Mycolicibacterium phlei
Mycobacterium 607 D87 = assay: MIC by serial agar dilution; type: cell-based; settings: Mycobacterium, 607D87
B. subtilis ATCC6633 = assay: MIC by serial agar dilution; type: cell-based; settings: Bacillus subtilis, medium A: Nutrient agar, read-out: MIC
E. coli NIHJ = assay: MIC by serial agar dilution; type: cell-based; settings: Escherichia coli, medium A: Nutrient agar, read-out: MIC
P. aeruginosa A20601 = assay: MIC by serial agar dilution; type: cell-based; settings: Pseudomonas aeruginosa; P. aeruginosa A20601, kanamycin resistant strain; medium A: Nutrient agar; read-out: MIC
E. cloacae A21006 = assay: MIC by serial agar dilution; type: cell-based; settings: Enterobacter cloacae; E. cloacae A21006, kanamycin resistant strain; medium A: Nutrient agar; read-out: MIC
E. coli Juhl [4] = assay: MIC by serial agar dilution; type: cell-based; settings: Escherichia coli, medium A: Nutrient agar, read-out: MIC
M. luteus PCI-1001 = assay: MIC by serial agar dilution; type: cell-based; settings: Micrococcus luteus, PCI1001
E. cloacae A20364 = assay: MIC by serial agar dilution; type: cell-based; settings: Enterobacter cloacae; E. cloacae A20364, kanamycin resistant strain; medium A: Nutrient agar; read-out: MIC
K. pneumoniae D-11 [5] = assay: in vivo efficacy in mice against experimental infection; settings: Klebsiella pneumoniae, D11, im, 120 h, read-out: PD50
M. flavus D-12 = assay: MIC by serial agar dilution; type: cell-based; settings: Micrococcus flavus, D12, medium A: Nutrient agar, read-out: MIC
E. coli Juhl [6] = assay: in vivo efficacy in mice against experimental infection; settings: Escherichia coli, im, 120 h, read-out: PD50
P. aeruginosa A9930 = assay: MIC by serial agar dilution; type: cell-based; settings: Pseudomonas aeruginosa, medium A: Nutrient agar, read-out: MIC
S. marcescens A20019 = assay: MIC by serial agar dilution; type: cell-based; settings: Serratia marcescens, A20019
S. aureus A20239 = assay: MIC by serial agar dilution; type: cell-based; settings: Staphylococcus aureus, A20239
[7] = Bacillus subtilis, PCI219, 18 h, read-out: Inhibition zone vs B. subtilis PCI-219

In the case of `CN[C@@H]1[C@H](O[C@H]2[C@H](O[C@H]3[C@H](O)[C@@H](O)[C@H](OC(N)=O)[C@@H](O)[C@@H]3N=C(N)N)O[C@@H](C)[C@]2(O)CO)O[C@@H](CO)[C@H](O)[C@H]1O` [glebomycin], the “Growth zone vs E. coli D64” value (E. coli D64; 1 mg/ml) is reported as 15 mm, the “Growth zone vs E. coli D64” value (E. coli D64; 4 mg/ml) is reported as 27 mm and the “Inhibition zone vs B. subtilis PCI-219” value (B. subtilis PCI-219; 1 mg/ml) is reported as 30 mm. For the same compound, the “Inhibition zone vs B. subtilis PCI-219” value (B. subtilis PCI-219; 4 mg/ml) was 33 mm.

In the case of `[H]/N=C(/N)N[C@H]1[C@H](O)[C@@H](O)[C@H](O[C@@H]2O[C@@H](C)[C@](O)(C=O)[C@H]2O[C@@H]2O[C@@H](CO)[C@H](O)[C@@H](O)[C@@H]2NC)[C@@H](N/C(N)=N\[H])[C@@H]1O` [streptomycin], the MIC (E. coli A20664) is reported as greater than 100 mg/L, the MIC (K. pneumoniae A9678) is reported as 6.3 mg/L (≈ 10.8 µM) and the MIC (Mycobacterium 607 D46) is reported as 0.4 mg/L (≈ 0.688 µM). The MIC (S. aureus Smith [1]) was 1.6 mg/L (≈ 2.75 µM), the MIC (Mycobacterium ranae) was 0.4 mg/L (≈ 0.688 µM) and the MIC (B. anthracis IID-115) was 0.4 mg/L (≈ 0.688 µM). For the same compound, the MIC (S. aureus 209P) was 1.6 mg/L (≈ 2.75 µM), the MIC (P. mirabilis A9554) was 1.6 mg/L (≈ 2.75 µM) and the MIC (E. coli JR35/c600) was greater than 100 mg/L. The MIC (P. vulgaris A9436) was 0.4 mg/L (≈ 0.688 µM), the ED50 (S. aureus Smith [2]; mice, i.m. just before challenge, S. aureus Smith, 5 days observation) was 1.9 mg/kg and the MIC (S. marcescens A22302) was greater than 100 mg/L. The “Growth zone vs E. coli D64, hazy growth zone” value (E. coli D64; 0.06 mg/ml) was 14 mm, the “Growth zone vs E. coli D64” value (E. coli D64; 0.25 mg/ml) was 17 mm and the “Growth zone vs E. coli D64, hazy growth zone” value (E. coli D64; 0.25 mg/ml) was 28 mm. For the same compound, the MIC (K. pneumoniae D-11 [3]) was 0.4 mg/L (≈ 0.688 µM), the MIC (P. aeruginosa A9843A) was greater than 100 mg/L and the MIC (E. coli K-12) was 1.6 mg/L (≈ 2.75 µM). The MIC (Mycobacterium phlei) was 0.2 mg/L (≈ 0.344 µM), the MIC (Mycobacterium 607 D87) was 0.4 mg/L (≈ 0.688 µM) and the MIC (B. subtilis ATCC6633) was 0.8 mg/L (≈ 1.38 µM). It also gave an MIC (E. coli NIHJ) of 1.6 mg/L (≈ 2.75 µM), an MIC (P. aeruginosa A20601) of 3.1 mg/L (≈ 5.33 µM) and an MIC (E. cloacae A21006) greater than 100 mg/L. It also gave an MIC (E. coli Juhl [4]) of 3.1 mg/L (≈ 5.33 µM), an MIC (M. luteus PCI-1001) of 3.1 mg/L (≈ 5.33 µM) and an MIC (E. cloacae A20364) greater than 100 mg/L. For the same compound, the ED50 (K. pneumoniae D-11 [5]; mice, i.m. just before challenge, K. pneumoniae D-11, 5 days observation) was 0.85 mg/kg, the zone of inhibition at 60 µg/mL (B. subtilis PCI-219; [7]) was 32 mm and the zone of inhibition at 250 µg/mL (B. subtilis PCI-219; [7]) was 35 mm. The MIC (M. flavus D-12) was 0.8 mg/L (≈ 1.38 µM), the ED50 (E. coli Juhl [6]) was 1.4 mg/kg and the MIC (P. aeruginosa A9930) was greater than 100 mg/L. It also gave an MIC (S. marcescens A20019) of 25 mg/L (≈ 43 µM) and an MIC (S. aureus A20239) greater than 100 mg/L.

Work on `NC[C@H]1O[C@H](O[C@H]2[C@H](O)[C@@H](O[C@H]3O[C@H](CO)[C@@H](O)[C@H](N)[C@H]3O)[C@H](N)C[C@@H]2N)[C@H](O)[C@@H](O)[C@@H]1O` [kanamycin] yielded an MIC (E. coli A20664) greater than 100 mg/L, an MIC (K. pneumoniae A9678) of 3.1 mg/L (≈ 6.4 µM) and an MIC (Mycobacterium 607 D46) greater than 100 mg/L. It also gave an MIC (S. aureus Smith [1]) of 0.4 mg/L (≈ 0.826 µM), an MIC (Mycobacterium ranae) of 0.2 mg/L (≈ 0.413 µM) and an MIC (B. anthracis IID-115) of 0.4 mg/L (≈ 0.826 µM). It also gave an MIC (S. aureus 209P) of 0.8 mg/L (≈ 1.65 µM), an MIC (P. mirabilis A9554) of 0.8 mg/L (≈ 1.65 µM) and an MIC (E. coli JR35/c600) greater than 100 mg/L. The MIC (P. vulgaris A9436) was 0.2 mg/L (≈ 0.413 µM), the ED50 (S. aureus Smith [2]) was 1.1 mg/kg and the MIC (S. marcescens A22302) was 50 mg/L (≈ 103 µM). The MIC (K. pneumoniae D-11 [3]) was 0.4 mg/L (≈ 0.826 µM), the MIC (P. aeruginosa A9843A) was 6.3 mg/L (≈ 13 µM) and the MIC (E. coli K-12) was 0.8 mg/L (≈ 1.65 µM). For the same compound, the MIC (Mycobacterium phlei) was 0.4 mg/L (≈ 0.826 µM), the MIC (Mycobacterium 607 D87) was 0.2 mg/L (≈ 0.413 µM) and the MIC (B. subtilis ATCC6633) was 0.2 mg/L (≈ 0.413 µM). For the same compound, the MIC (E. coli NIHJ) was 0.8 mg/L (≈ 1.65 µM), the MIC (P. aeruginosa A20601) was greater than 100 mg/L and the MIC (E. cloacae A21006) was greater than 100 mg/L. It also gave an MIC (E. coli Juhl [4]) of 1.6 mg/L (≈ 3.3 µM), an MIC (M. luteus PCI-1001) of 6.3 mg/L (≈ 13 µM) and an MIC (E. cloacae A20364) greater than 100 mg/L. The ED50 (K. pneumoniae D-11 [5]) was 1.1 mg/kg, the zone of inhibition at 100 µg/mL (B. subtilis PCI-219; [7]) was 30 mm and the zone of inhibition at 400 µg/mL (B. subtilis PCI-219; [7]) was 34 mm. For the same compound, the MIC (M. flavus D-12) was 1.6 mg/L (≈ 3.3 µM), the ED50 (E. coli Juhl [6]) was 3.5 mg/kg and the MIC (P. aeruginosa A9930) was 12.5 mg/L (≈ 25.8 µM). It also gave an MIC (S. marcescens A20019) of 1.5 mg/L (≈ 3.1 µM) and an MIC (S. aureus A20239) greater than 100 mg/L.
